Reference: patent publication US20220326218A1, “COMPOSITION AND METHOD FOR INHIBITING BORC COMPLEX TO TREAT CANCERS WITH NF1 DEFICIENCY AND DYSREGULATED RAS SIGNALING” (THE TRUSTEES OF DARTMOUTH COLLEGE, priority 2019, published 2022)

What was measured:
erg6Δira2Δ yeast = experiment: Yeast dose response curves, erg6Δira2Δ strain; type: cell-based, Saccharomyces cerevisiae; conditions: 30° C., 18 h, 100 μM to 0.039 μM, normalized to DMSO
Protocol: S. cerevisiae strains were plated at an OD600 of 0.05 in 96-well plates (Falcon) and treated with SC complete containing compound starting at 100 μM, followed by 2-fold serial dilutions to generate a 10-point range of concentrations normalized with DMSO; one row was treated with DMSO as a control. Yeast were incubated for 18 h. To process, the optical density was read using a Spectramax M2 (Molecular Devices) at a wavelength of 600 nm and normalized to DMSO. Each experiment was repeated 2-3 times with 4 technical replicates per experiment.
A high-throughput screen in Saccharomyces cerevisiae lacking a yeast homologue of NF1, IRA2 (ira2Δ) was developed and carried out to identify tool compounds that elicited synthetic lethality with NF1 loss (15). ira2Δ yeast have increased RAS-GTP, which results in increased MAPK and PKA signaling analogous to the pathways that are activated in NF1-deficient Schwann cells (17). […]
More than 5,100 structurally diverse compounds selected from and representative of a >340,000-compound library were screened. […] To determine whether Y102 was also effective in human tumor cells, the efficacy of Y102 was evaluated in two NF1-deficient human cancer cell line models of glioblastoma, U87-MG and U251-MG, and an NF1-deficient Neurofibromatosis type 1-associated MPNST cell line sNF96.2. […]

U87-MG cells = experiment: Hoechst cell death viability assay, U87-MG; type: cell-based, human
Protocol: Cells were plated at 2,500 cells/well in 96-well plates and allowed to adhere overnight. Medium was removed and replaced with media containing compound starting at 100 μM, followed by 2-fold serial dilutions to generate a 10-point range of concentrations normalized with DMSO; one row was treated with DMSO as a control. Cells were incubated for the indicated timepoints. Upon collection, media was removed, cells were rinsed with PBS, and stored at −80° C. until all plates were collected. To process cells, plates were thawed with PBS, incubated with 1× saline-sodium citrate (SSC) buffer with 0.02% sodium dodecyl sulfate (SDS) for 1 hour at 37° C., followed by staining with 1 μg/mL Hoechst 33258 (Pierce). […] using a Spectramax M2 at an excitation of 355 nm and an emission of 460 nm, and absorbance was normalized to DMSO. Each experiment was repeated 2-3 times with 4 technical replicates per experiment.

cleaved caspase-3 = experiment: Immunofluorescence staining for cleaved caspase-3; type: cell-based, human; conditions: U87-MG, 2 μM, 48 h
Protocol: (§1) U87-MG cells were plated at a concentration of 50,000 cells/well onto precoated poly-D-lysine (PDL) coverslips (Neuvitro) in 24-well plates (Falcon) and allowed to adhere overnight. Medium was removed and replaced with treatment-laced media normalized to DMSO, and cells were treated for the indicated timepoints. At the time of collection, cells were washed with PBS and fixed with 4% paraformaldehyde without methanol (EMS) or 100% methanol (Fischer). Coverslips were washed with Tween20-containing PBS (PBST; Fischer). Following permeabilization with 0.5% Triton X-100 in PBS (Fischer), coverslips were blocked for 1 h at room temperature in IF Buffer (0.05% azide, 0.2% Triton X-100, 2% Normal Goat Serum or, for 8-OHG, Normal Donkey Serum). The following primary antibodies were used for 1 hour at room temperature unless specified: AlexaFluor 488 pre-conjugated anti-γ-H2AX (N1-431) mouse monoclonal (30 minutes; BD Biosciences), anti-cleaved caspase 3 (Asp175) rabbit polyclonal (Cell Signaling), anti-SQSTM1/p62 (D-3) mouse monoclonal (Santa Cruz), anti-8-Hydroxyguanosine goat polyclonal (1:200; Millipore), anti-LAMP1 (D4O1S) mouse monoclonal (O/N at 4° C.; Cell Signaling), anti-BNIP3L/Nix (D4R4B) rabbit monoclonal (O/N at 4° C.; Cell Signaling), anti-FLAG (M2) mouse monoclonal (2 hours at 37° C.; Sigma-Aldrich). […]

proteasomal active sites = target: T1, proteasomal active sites (Homo sapiens, UniProt P28072+P28074+Q99436); experiment: MV-151 proteasome active site inhibition assay; type: cell-based; conditions: U87-MG; Y102 2 μM 24 h; positive control 1 μM Bortezomib and 10 μM MG-132 2 h
T1 construct: endogenous in cells; host or cells: U87-MG
Protocol: U87-MG cells were plated at 500,000 cells/well in 6-well plates and allowed to adhere overnight (Falcon). Medium was removed and replaced with fresh medium containing Y102 or vehicle DMSO and treated for 24 h. As a positive control, one well was treated for 2 h with 1 μM Bz/10 μM MG-132.
Cells were collected after treatment by washing with PBS, harvested with trypsin plus agitation to detach cells, spun down in a centrifuge, and resuspended in PBS to wash. Cells were transferred to 1.5 mL microcentrifuge tubes, pelleted, and resuspended in 20 μL digitonin lysis buffer (50 mM Tris HCl pH 7.5, 250 mM sucrose, 2 mM EDTA, 1 mM ATP, 1 mM DTT, and 0.05% digitonin). Cells were mixed by pipetting, incubated on ice for 20 minutes, and the lysate was cleared by centrifugation. Protein concentrations were determined using a Bradford protein assay (Bio-Rad). 10 μg of protein lysate was incubated for 20 minutes with 20 μM MV-151 in a 37° C. water bath. 4× loading dye was added to the samples and proteins were separated by sodium dodecyl sulfate-polyacrylamide gel electrophoresis (SDS-PAGE) on a 4-15% polyacrylamide gradient gel (Bio-Rad). Gel was imaged on a Typhoon scanner at an excitation of 532 nm and an emission of 560 nm to detect MV-151 fluorescence. Following imaging, proteins were transferred to nitrocellulose. The blot was probed for α-Tubulin as a loading control. […]

p21 = experiment: Immunofluorescence of p21 expression and nucleus size; type: cell-based, human; conditions: U87-MG, 2 μM, 24 h
Protocol: as §1

Cn1cnnc1S/C=C/C(=O)c1ccc(F)cc1 [Y102]
effect on growth of erg6Δira2Δ yeast (OD600) (erg6Δira2Δ yeast): inhibitory effect | growth inhibition, acute treatment of 2 hours compared to continuous treatment for 72 hours (U87-MG cells): same degree of growth inhibition | reversibility of effects after a 2 hour treatment (U87-MG cells): irreversible | concentration from which cell proliferation was inhibited (U87-MG cells; continuous treatment, seven days, normalized to day zero plating): ≥ 3.125 µM | sensitivity of NF1-deficient cell line to treatment (U87-MG cells; up to 7 days, 100 μM to 0.039 μM, Hoechst 33258): sensitive | amount of cleaved caspase-3 versus vehicle control (cleaved caspase-3): No difference | inhibition of the proteasomal subunits (MV-151 competitive binding) (proteasomal active sites): not | nucleus size (p21): increase | p21 expression (p21): increase
